# Columns and labels:
# [1] = molecular target: SRSF protein kinase 1 (Homo sapiens) (UniProt Q96SB4); assay: Percentage SRPK1 activity remaining in the presence of 25uM inhibitor
# [2] = molecular target: T1, Casein kinase I isoform delta (Homo sapiens, UniProt P48730); assay: Percentage CK1delta activity remaining in the presence of 3uM inhibitor
# [3] = molecular target: Tyrosine-protein kinase Yes (Homo sapiens, UniProt P07947); assay: Inhibition of Yes in the presence of 20uM ATP
# [4] = molecular target: T2, 3-phosphoinositide-dependent protein kinase 1 (Homo sapiens) (UniProt O15530); assay: Percentage PDK1 activity remaining in the presence of 3uM inhibitor
# T2 sequence (whole entry): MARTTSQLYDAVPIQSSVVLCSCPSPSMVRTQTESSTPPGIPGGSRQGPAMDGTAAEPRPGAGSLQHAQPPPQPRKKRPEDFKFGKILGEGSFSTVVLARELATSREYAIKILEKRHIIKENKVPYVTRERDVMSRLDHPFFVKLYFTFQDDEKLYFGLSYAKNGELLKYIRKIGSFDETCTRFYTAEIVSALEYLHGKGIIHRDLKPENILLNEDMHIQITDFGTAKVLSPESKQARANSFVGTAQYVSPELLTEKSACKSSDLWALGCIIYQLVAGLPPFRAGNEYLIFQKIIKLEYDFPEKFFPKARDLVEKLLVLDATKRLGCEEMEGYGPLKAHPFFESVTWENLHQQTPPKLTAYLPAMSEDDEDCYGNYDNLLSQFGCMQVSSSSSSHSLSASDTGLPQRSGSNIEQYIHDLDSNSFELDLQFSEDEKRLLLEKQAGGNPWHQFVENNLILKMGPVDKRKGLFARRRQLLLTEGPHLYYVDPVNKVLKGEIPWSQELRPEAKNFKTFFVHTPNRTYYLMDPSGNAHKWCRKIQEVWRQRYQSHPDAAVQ
# [5] = molecular target: Serine/threonine-protein kinase PAK 6 (Homo sapiens) (UniProt Q9NQU5); assay: Percentage PAK6 activity remaining in the presence of 3uM inhibitor
# [6] = molecular target: Ribosomal protein S6 kinase alpha-1 (Homo sapiens) (UniProt Q15418); assay: Percentage RSK1 activity remaining in the presence of 3uM inhibitor
# [7] = molecular target: T3, Protein kinase C zeta type (Homo sapiens) (UniProt Q05513); assay: Percentage PKCzeta activity remaining in the presence of 3uM inhibitor
# T3 sequence (whole entry): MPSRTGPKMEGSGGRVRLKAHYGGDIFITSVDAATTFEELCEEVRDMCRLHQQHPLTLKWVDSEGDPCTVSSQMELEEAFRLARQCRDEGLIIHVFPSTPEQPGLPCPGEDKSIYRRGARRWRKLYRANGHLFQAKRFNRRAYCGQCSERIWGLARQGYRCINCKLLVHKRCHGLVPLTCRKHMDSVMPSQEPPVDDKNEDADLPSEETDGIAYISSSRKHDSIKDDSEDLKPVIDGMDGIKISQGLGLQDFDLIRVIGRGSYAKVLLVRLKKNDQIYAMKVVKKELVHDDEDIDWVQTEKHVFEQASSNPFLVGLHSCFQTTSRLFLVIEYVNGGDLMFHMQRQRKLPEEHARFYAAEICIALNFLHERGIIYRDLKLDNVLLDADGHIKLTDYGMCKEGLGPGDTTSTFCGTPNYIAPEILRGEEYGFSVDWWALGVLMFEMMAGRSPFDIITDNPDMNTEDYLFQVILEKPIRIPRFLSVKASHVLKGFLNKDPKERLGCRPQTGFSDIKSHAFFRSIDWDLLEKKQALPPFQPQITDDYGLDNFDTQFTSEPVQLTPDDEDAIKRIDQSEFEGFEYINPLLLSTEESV
# [8] = molecular target: SRSF protein kinase 1 (Homo sapiens) (UniProt Q96SB4); assay: Percentage SRPK1 activity remaining in the presence of 3uM inhibitor
# [9] = molecular target: Mitogen-activated protein kinase 1 (Homo sapiens) (UniProt P28482); assay: Percentage ERK2 activity remaining in the presence of 3uM inhibitor
# [10] = molecular target: MAP kinase-interacting serine/threonine-protein kinase 2 (Homo sapiens) (UniProt Q9HBH9); assay: Percentage MNK2 activity remaining in the presence of 3uM inhibitor
# Chain of MAP kinase-interacting serine/threonine-protein kinase 2 (Homo sapiens) (Q9HBH9 whole entry, looked up): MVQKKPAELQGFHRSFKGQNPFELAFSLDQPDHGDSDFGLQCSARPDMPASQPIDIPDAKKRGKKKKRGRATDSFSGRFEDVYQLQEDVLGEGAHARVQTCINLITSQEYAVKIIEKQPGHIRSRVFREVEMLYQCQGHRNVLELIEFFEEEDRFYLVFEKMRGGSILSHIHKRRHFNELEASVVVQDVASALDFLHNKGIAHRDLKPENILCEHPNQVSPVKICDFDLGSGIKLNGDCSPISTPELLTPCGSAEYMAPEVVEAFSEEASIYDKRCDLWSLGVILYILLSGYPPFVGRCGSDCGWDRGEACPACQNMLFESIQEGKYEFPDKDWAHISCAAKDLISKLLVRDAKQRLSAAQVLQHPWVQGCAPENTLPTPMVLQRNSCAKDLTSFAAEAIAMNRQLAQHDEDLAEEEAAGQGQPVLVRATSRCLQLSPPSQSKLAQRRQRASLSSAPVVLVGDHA
# [11] = molecular target: Mitogen-activated protein kinase 10 (Homo sapiens) (UniProt P53779); assay: Percentage JNK3 activity remaining in the presence of 2uM inhibitor
# [12] = molecular target: Homeodomain-interacting protein kinase 3 (Homo sapiens) (UniProt Q9H422); assay: Percentage HIPK3 activity remaining in the presence of 2uM inhibitor; conditions: filed as antagonist
# Chain of Homeodomain-interacting protein kinase 3 (Homo sapiens) (Q9H422 whole entry, looked up): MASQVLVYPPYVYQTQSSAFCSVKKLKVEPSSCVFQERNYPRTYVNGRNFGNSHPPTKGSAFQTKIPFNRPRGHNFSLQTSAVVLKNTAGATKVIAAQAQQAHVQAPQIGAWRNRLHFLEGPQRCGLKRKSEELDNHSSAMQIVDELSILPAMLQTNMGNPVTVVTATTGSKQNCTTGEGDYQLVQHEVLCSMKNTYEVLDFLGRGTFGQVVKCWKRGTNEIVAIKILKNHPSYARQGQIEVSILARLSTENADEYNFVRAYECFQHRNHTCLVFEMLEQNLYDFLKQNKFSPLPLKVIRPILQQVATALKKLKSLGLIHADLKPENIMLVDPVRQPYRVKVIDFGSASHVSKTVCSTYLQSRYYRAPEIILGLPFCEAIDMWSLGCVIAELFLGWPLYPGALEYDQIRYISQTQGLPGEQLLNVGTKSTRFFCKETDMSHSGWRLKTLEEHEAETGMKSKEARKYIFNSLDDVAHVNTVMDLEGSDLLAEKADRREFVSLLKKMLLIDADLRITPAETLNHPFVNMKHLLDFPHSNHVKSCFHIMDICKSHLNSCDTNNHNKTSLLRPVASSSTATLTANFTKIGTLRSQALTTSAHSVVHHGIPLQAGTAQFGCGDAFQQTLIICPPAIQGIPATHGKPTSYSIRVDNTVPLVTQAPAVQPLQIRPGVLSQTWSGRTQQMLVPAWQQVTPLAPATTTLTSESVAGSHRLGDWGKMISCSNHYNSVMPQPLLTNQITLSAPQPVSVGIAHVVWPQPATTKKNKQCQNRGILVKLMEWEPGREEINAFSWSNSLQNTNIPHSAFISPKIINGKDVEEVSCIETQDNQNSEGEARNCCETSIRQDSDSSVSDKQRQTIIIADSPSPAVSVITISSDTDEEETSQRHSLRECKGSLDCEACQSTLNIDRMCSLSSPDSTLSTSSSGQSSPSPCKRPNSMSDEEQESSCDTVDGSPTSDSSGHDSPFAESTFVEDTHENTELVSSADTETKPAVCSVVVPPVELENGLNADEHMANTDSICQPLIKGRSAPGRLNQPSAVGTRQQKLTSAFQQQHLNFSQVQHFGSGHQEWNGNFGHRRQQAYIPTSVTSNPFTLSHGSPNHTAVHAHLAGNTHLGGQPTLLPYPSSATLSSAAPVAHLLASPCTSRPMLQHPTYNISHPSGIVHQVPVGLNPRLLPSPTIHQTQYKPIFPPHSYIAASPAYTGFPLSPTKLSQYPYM
# [13] = molecular target: MAP kinase-activated protein kinase 2 (Homo sapiens) (UniProt P49137); assay: Percentage MAPKAPK2 activity remaining in the presence of 2uM inhibitor
# Chain of MAP kinase-activated protein kinase 2 (Homo sapiens) (P49137 whole entry, looked up): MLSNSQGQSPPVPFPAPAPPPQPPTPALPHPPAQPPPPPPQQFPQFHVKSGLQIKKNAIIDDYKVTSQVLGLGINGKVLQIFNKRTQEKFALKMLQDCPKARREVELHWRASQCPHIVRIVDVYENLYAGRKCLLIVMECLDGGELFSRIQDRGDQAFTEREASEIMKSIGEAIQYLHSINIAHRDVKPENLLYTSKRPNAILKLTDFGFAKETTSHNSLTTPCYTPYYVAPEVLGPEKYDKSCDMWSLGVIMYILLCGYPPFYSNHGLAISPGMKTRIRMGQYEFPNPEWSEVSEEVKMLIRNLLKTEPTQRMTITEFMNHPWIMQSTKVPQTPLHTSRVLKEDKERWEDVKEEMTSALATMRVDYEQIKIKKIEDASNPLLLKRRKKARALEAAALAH
# [14] = molecular target: Mitogen-activated protein kinase 9 (Homo sapiens, UniProt P45984); assay: Percentage JNK2 activity remaining in the presence of 2uM inhibitor
# Chain of Mitogen-activated protein kinase 9 (P45984 whole entry, looked up): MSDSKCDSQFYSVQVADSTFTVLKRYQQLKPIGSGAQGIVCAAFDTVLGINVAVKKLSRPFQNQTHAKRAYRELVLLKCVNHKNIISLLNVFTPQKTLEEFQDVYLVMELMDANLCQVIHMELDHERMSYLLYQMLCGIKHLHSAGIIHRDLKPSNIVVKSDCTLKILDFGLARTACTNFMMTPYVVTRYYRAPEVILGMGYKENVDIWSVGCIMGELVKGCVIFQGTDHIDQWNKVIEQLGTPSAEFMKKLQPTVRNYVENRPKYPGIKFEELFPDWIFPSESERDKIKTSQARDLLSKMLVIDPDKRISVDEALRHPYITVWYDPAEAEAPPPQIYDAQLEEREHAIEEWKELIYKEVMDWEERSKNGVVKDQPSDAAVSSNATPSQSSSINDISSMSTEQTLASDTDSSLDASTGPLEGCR
# [15] = molecular target: T2, 3-phosphoinositide-dependent protein kinase 1 (Homo sapiens); assay: Percentage PDK1 activity remaining in the presence of 2uM inhibitor
# [16] = species: Homo sapiens; assay: Percentage PHK activity remaining in the presence of 2uM inhibitor
# [17] = molecular target: T1, Casein kinase I isoform delta; assay: Percentage CK1delta activity remaining in the presence of 2uM inhibitor
# [18] = molecular target: Serine/threonine-protein kinase Nek6 (Homo sapiens) (UniProt Q9HC98); assay: Percentage NEK6 activity remaining in the presence of 2uM inhibitor
# Chain of Serine/threonine-protein kinase Nek6 (Homo sapiens) (Q9HC98 whole entry): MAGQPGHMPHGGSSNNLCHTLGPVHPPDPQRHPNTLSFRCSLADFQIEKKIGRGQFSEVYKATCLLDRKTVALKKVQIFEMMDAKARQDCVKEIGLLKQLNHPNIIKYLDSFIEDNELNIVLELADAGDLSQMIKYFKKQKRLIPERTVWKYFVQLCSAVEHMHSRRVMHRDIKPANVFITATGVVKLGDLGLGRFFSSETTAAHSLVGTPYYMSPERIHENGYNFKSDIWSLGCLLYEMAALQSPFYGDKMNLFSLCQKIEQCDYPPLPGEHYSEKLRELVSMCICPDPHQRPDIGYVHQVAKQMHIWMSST
# [19] = molecular target: Myosin light chain kinase, smooth muscle (Homo sapiens, UniProt Q15746); assay: Percentage SmMLCK activity remaining in the presence of 2uM inhibitor
# [20] = molecular target: Serine/threonine-protein kinase pim-2 (Homo sapiens, UniProt Q9P1W9); assay: Percentage PIM2 activity remaining in the presence of 2uM inhibitor
# Chain of Serine/threonine-protein kinase pim-2 (Q9P1W9 whole entry, looked up): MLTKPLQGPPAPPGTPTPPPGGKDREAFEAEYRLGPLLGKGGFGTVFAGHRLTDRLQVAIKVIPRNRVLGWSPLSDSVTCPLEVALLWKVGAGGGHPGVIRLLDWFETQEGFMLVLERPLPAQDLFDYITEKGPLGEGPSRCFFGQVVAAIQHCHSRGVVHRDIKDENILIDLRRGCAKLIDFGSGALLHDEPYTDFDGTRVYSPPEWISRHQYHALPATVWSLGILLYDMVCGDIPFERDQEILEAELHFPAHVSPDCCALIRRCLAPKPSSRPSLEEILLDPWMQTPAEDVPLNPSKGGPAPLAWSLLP
# [21] = molecular target: Ribosomal protein S6 kinase alpha-3 (Homo sapiens) (UniProt P51812); assay: Percentage RSK2 activity remaining in the presence of 2uM inhibitor
# [22] = molecular target: T4, Serine/threonine-protein kinase 3 (Homo sapiens) (UniProt Q13188); assay: Percentage MST2 activity remaining in the presence of 2uM inhibitor; conditions: filed as antagonist
# T4 sequence (whole entry): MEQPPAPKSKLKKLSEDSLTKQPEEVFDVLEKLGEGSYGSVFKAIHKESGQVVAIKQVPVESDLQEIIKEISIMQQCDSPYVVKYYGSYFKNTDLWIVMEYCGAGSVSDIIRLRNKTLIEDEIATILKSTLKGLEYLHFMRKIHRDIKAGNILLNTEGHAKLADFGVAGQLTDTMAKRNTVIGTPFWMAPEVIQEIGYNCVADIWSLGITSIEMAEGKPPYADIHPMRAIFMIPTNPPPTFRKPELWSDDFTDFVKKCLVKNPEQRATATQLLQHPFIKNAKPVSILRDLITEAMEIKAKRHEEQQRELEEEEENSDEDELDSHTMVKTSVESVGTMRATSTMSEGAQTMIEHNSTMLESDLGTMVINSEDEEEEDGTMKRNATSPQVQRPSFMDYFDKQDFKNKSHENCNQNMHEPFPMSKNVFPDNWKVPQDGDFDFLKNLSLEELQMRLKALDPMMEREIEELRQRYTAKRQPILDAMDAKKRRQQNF
# Chain of SRSF protein kinase 1 (Homo sapiens) (Q96SB4 whole entry, canonical isoform): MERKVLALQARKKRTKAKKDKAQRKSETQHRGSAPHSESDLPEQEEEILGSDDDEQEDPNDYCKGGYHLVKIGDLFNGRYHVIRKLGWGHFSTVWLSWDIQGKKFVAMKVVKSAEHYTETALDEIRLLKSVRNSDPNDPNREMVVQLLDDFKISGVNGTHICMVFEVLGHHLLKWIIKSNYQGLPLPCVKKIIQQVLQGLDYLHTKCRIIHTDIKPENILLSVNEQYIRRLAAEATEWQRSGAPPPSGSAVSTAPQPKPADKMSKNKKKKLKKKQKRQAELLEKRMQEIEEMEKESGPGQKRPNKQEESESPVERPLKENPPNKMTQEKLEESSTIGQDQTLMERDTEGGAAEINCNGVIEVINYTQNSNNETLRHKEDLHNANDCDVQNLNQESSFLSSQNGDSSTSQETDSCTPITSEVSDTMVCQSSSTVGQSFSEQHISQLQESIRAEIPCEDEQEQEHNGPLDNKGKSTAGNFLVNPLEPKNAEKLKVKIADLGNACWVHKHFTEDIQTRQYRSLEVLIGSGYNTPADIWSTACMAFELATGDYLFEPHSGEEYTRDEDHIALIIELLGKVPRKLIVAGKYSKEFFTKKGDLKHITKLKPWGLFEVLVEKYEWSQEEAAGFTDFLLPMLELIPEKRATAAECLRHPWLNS
# T1 sequence (P48730 whole entry, looked up, canonical isoform): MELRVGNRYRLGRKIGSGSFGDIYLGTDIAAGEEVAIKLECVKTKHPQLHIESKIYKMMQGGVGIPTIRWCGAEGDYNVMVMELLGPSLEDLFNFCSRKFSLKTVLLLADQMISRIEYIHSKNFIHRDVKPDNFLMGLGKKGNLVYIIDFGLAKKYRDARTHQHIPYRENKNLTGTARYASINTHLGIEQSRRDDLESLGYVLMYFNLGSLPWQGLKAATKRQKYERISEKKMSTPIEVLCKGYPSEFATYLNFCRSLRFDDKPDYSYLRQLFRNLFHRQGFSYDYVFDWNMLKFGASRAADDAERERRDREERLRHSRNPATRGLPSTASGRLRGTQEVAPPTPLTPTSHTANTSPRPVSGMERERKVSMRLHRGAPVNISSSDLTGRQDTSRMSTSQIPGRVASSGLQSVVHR
# Chain of Tyrosine-protein kinase Yes (P07947 whole entry): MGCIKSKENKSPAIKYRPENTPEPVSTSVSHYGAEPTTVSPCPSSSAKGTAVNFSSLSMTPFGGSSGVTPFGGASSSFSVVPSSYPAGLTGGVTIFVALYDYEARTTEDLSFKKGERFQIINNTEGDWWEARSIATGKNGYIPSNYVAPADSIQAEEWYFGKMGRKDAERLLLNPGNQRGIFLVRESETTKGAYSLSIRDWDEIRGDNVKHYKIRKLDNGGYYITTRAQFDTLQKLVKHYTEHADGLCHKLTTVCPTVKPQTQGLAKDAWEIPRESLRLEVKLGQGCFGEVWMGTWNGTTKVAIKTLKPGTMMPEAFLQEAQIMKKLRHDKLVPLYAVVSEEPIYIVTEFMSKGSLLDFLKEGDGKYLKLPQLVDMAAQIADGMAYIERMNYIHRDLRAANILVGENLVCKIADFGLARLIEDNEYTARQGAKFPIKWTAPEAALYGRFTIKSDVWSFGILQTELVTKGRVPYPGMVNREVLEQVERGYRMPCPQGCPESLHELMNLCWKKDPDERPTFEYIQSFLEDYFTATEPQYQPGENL
compound,measurement,setting,value
NCCNS(=O)(=O)c1ccc(Cl)c2ccncc12,Activity,[1],86%
Cc1ccc(-c2c(C(=O)CF)n(CCCO)c3ncnc(N)c23)cc1,Activity,[2],63%
same,IC50,[3],510 nM (antagonist)
same,Activity,[4],89%
same,Activity,[5],93%
same,Activity,[6],92%
same,Activity,[7],91%
same,Activity,[8],85%
same,Activity,[9],79%
same,Activity,[10],65%
Cn1cc(C2=C(c3ccc(Cl)cc3Cl)C(=O)NC2=O)c2ccccc21,Activity,[11],88%
same,Activity,[12],41%
same,Activity,[13],82%
same,Activity,[14],85%
same,Activity,[15],92%
same,Activity,[16],87%
same,Activity,[17],78%
same,Activity,[18],74%
same,Activity,[19],60%
same,Activity,[20],81%
same,Activity,[21],67%
same,Activity,[22],50%

# From ChEMBL document CHEMBL1150976, “The selectivity of protein kinase inhibitors: a further update” (Biochem J, 2007)
